Source: patent US10189842B2 (Agency for Science, Technology and Research, priority 2013, dated 2019)
pIC50: −log10 of the molar value.

System: HEK293-STF3A cells
Assay: STF3A assay (luciferase reporter)
Assay type: cell-based, Human
Conditions: 1 day of treatment
Text: HEK293-STF cell line was modified from Human embryonic kidney cell line HEK293 transfected with the STF reporter. HEK293-STF3A cell line was further modified from HEK293-STF cell line to express Wnt3A. This cell line was used to identify compounds that regulate either early or late signaling components of the Wnt pathway. These two cell lines were obtained from David Virshup's laboratory, Duke-NUS. L-Wnt3A (ATCC, #CRL-2647) cell line was used for providing Wnt3A conditioned media. The three cell lines were grown in DMEM with 10% FBS incubated in 37° C. with 5% CO2.
2×10^4 HEK293-STF3A cells in 75 μl culture media were seeded in each well of white 96 well plates (Greiner #655098) and incubated overnight at 37° C. 25 μl serially diluted compound was added to the cells to give final concentration of 50 μM to 1.5 nM. After 1 day of treatment, 100 μl of Steady-Glo Luciferase Assay reagent (#E2520, Promega) was added to each well and incubated for 10 minutes at room temperature. Luminescence was measured using Tecan Safire2 plate reader.

Molecule	pIC50	pIC50 (Homo sapiens, 24 h)
4-(2-methyl-6,7-dihydropyrazolo[1,5-a]pyrimidin-4(5H)-yl)-N-(4-(2-methylthiazol-4-yl)phenyl)-4-oxobutanamide [Compound 32]	> 7.00	–
Cc1cc(NC(=O)CCC(=O)N2CCCn3nc(C)cc32)on1 [Compound 1, 4-(2-methyl-6,7-dihydropyrazolo[1,5-a]pyrimidin-4(5H)-yl)-N-(3-methylisoxazol-5-yl)-4-oxobutanamide]	–	< 5.00
Cc1cc2n(n1)CCCN2C(=O)CCC(=O)Nc1cc(-c2ccccc2)no1 [Compound 2, 4-(2-methyl-6,7-dihydropyrazolo[1,5-a]pyrimidin-4(5H)-yl)-4-oxo-N-(3-phenylisoxazol-5-yl)butanamide]	–	> 6.00
Cc1cc2n(n1)CCCN2C(=O)CCC(=O)Nc1cc(-c2cccc(Cl)c2)no1 [Compound 3, N-(3-(3-chlorophenyl)isoxazol-5-yl)-4-(2-methyl-6,7-dihydropyrazolo[1,5-a]pyrimidin-4(5H)-yl)-4-oxobutanamide]	–	> 7.00
Cc1cc2n(n1)CCCN2C(=O)CCC(=O)Nc1oncc1-c1ccccc1 [Compound 4, 4-(2-methyl-6,7-dihydropyrazolo[1,5-a]pyrimidin-4(5H)-yl)-4-oxo-N-(4-phenylisoxazol-5-yl)butanamide]	–	< 5.00
Cc1cc2n(n1)CCCN2C(=O)CCC(=O)Nc1cc(-c2ccc(Cl)cc2)no1 [Compound 5, N-(3-(4-chlorophenyl)isoxazol-5-yl)-4-(2-methyl-6,7-dihydropyrazolo[1,5-a]pyrimidin-4(5H)-yl)-4-oxobutanamide]	–	> 7.00
Cc1cc2n(n1)CCCN2C(=O)CCC(=O)Nc1cc(-c2ccccc2Cl)no1 [Compound 6, N-(3-(2-chlorophenyl)isoxazol-5-yl)-4-(2-methyl-6,7-dihydropyrazolo[1,5-a]pyrimidin-4(5H)-yl)-4-oxobutanamide]	–	< 5.00
Cc1cc2n(n1)CCCN2C(=O)CCC(=O)Nc1cc(-c2ccc(Cl)c(Cl)c2)no1 [Compound 7, N-(3-(3,4-dichlorophenyl)isoxazol-5-yl)-4-(2-methyl-6,7-dihydropyrazolo[1,5-a]pyrimidin-4(5H)-yl)-4-oxobutanamide]	–	< 5.00
Cc1cc2n(n1)CCCN2C(=O)CCC(=O)Nc1cc(-c2cccc(F)c2)no1 [Compound 8, N-(3-(3-fluorophenyl)isoxazol-5-yl)-4-(2-methyl-6,7-dihydropyrazolo[1,5-a]pyrimidin-4(5H)-yl)-4-oxobutanamide]	–	> 7.00
Cc1cc2n(n1)CCCN2C(=O)CCC(=O)Nc1cc(-c2cccc(Br)c2)no1 [Compound 9, N-[3-(3-bromophenyl)-1,2-oxazol-5-yl]-4-{2-methyl-5H,6H,7H-pyrazolo[1,5-a]pyrimidin-4-yl}-4-oxobutanamide]	–	> 6.00
COc1cccc(-c2cc(NC(=O)CCC(=O)N3CCCn4nc(C)cc43)on2)c1 [Compound 10, N-[3-(3-methoxyphenyl)-1,2-oxazol-5-yl]-4-{2-methyl-5H,6H,7H-pyrazolo[1,5-a]pyrimidin-4-yl}-4-oxobutanamide]	–	> 5.30
Cc1cccc(-c2cc(NC(=O)CCC(=O)N3CCCn4nc(C)cc43)on2)c1 [Compound 11, 4-{2-methyl-5H,6H,7H-pyrazolo[1,5-a]pyrimidin-4-yl}-N-[3-(3-methylphenyl)-1,2-oxazol-5-yl]-4-oxobutanamide]	–	< 5.00
Cc1cc2n(n1)CCCN2C(=O)CCC(=O)Nc1cc(-c2ccccc2C)no1 [Compound 12, 4-(2-methyl-6,7-dihydropyrazolo[1,5-a]pyrimidin-4(5H)-yl)-4-oxo-N-(3-(o-tolyl)isoxazol-5-yl)butanamide]	–	> 7.00
Cc1cc2n(n1)CCCN2C(=O)CCC(=O)Nc1cc(-c2cccc(C(F)(F)F)c2)no1 [Compound 13, 4-{2-methyl-5H,6H,7H-pyrazolo[1,5-a]pyrimidin-4-yl}-4-oxo-N-{3-[3-(trifluoromethyl)phenyl]-1,2-oxazol-5-yl}butanamide]	–	< 5.00
Cc1cc2n(n1)CCCN2C(=O)CCC(=O)Nc1ccc(-c2ccc(C(F)(F)F)cc2)cc1 [Compound 14, 4-(2-methyl-6,7-dihydropyrazolo[1,5-a]pyrimidin-4(5H)-yl)-4-oxo-N-(4′-(trifluoromethyl)-[1,1′-biphenyl]-4-yl)butanamide]	–	< 5.00
Cc1cc2n(n1)CCCN2C(=O)CCC(=O)Nc1cc(-c2ccc(N)cc2)no1 [Compound 15, N-[3-(4-aminophenyl)-1,2-oxazol-5-yl]-4-{2-methyl-5H,6H,7H-pyrazolo[1,5-a]pyrimidin-4-yl}-4-oxobutanamide]	–	< 5.00
Cc1cc2n(n1)CCCN2C(=O)CCC(=O)Nc1cc(-c2cc(Cl)ccn2)no1 [Compound 16, N-(3-(4-chloropyridin-2-yl)isoxazol-5-yl)-4-(2-methyl-6,7-dihydropyrazolo[1,5-a]pyrimidin-4(5H)-yl)-4-oxobutanamide]	–	< 5.00
Cc1cc2n(n1)CCCN2C(=O)CCC(=O)Nc1cc(-c2ccc(Cl)cn2)no1 [Compound 17, N-(3-(5-chloropyridin-2-yl)isoxazol-5-yl)-4-(2-methyl-6,7-dihydropyrazolo[1,5-a]pyrimidin-4(5H)-yl)-4-oxobutanamide]	–	< 5.00
Cc1cc2n(n1)CCCN2C(=O)CCC(=O)Nc1cc(-c2cncc(Cl)c2)no1 [Compound 18, N-[3-(5-chloropyridin-3-yl)-1,2-oxazol-5-yl]-4-{2-methyl-5H,6H,7H-pyrazolo[1,5-a]pyrimidin-4-yl}-4-oxobutanamide]	–	> 5.30
Cc1cc2n(n1)CCCN2C(=O)CCC(=O)Nc1cc(-c2cccnc2)no1 [Compound 19, 4-(2-methyl-6,7-dihydropyrazolo[1,5-a]pyrimidin-4(5H)-yl)-4-oxo-N-(3-(pyridin-3-yl)isoxazol-5-yl)butanamide]	–	< 5.00
Cc1cc2n(n1)CCCN2C(=O)CCC(=O)Nc1cc(-c2ccncc2)no1 [Compound 20, 4-{2-methyl-5H,6H,7H-pyrazolo[1,5-a]pyrimidin-4-yl}-4-oxo-N-[3-(pyridin-4-yl)-1,2-oxazol-5-yl]butanamide]	–	< 5.00
Cc1cc2n(n1)CCCN2C(=O)CCC(=O)Nc1cc(-c2cccc(Cl)c2)nn1C [Compound 21, N-(3-(3-chlorophenyl)-1-methyl-1H-pyrazol-5-yl)-4-(2-methyl-6,7-dihydropyrazolo[1,5-a]pyrimidin-4(5H)-yl)-4-oxobutanamide]	–	< 5.00
Cc1cc2n(n1)CCCN2C(=O)CCC(=O)Nc1nc(-c2cccc(Cl)c2)no1 [Compound 22, N-(3-(3-chlorophenyl)-1,2,4-oxadiazol-5-yl)-4-(2-methyl-6,7-dihydropyrazolo[1,5-a]pyrimidin-4(5H)-yl)-4-oxobutanamide]	–	< 5.00
Cc1cc2n(n1)CCCN2C(=O)CCC(=O)Nc1cc(-c2cccc(Cl)c2)on1 [Compound 23, N-[5-(3-chlorophenyl)-1,2-oxazol-3-yl]-4-{2-methyl-5H,6H,7H-pyrazolo[1,5-a]pyrimidin-4-yl}-4-oxobutanamide]	–	> 6.00
Cc1cc2n(n1)CCCN2C(=O)CCC(=O)Nc1ccc(-c2cnco2)cc1 [Compound 24, 4-(2-methyl-6,7-dihydropyrazolo[1,5-a]pyrimidin-4(5H)-yl)-N-(4-(oxazol-5-yl)phenyl)-4-oxobutanamide]	–	> 5.30
Cc1cc2n(n1)CCCN2C(=O)CCC(=O)Nc1ccc(-c2nccs2)cc1 [Compound 25]	–	> 7.00
